Measurements reported in article PMC7332481, “Ecotoxicity screening evaluation of selected pharmaceuticals and their transformation products towards various organisms” (Environmental Science and Pollution Research International, 2020).
≈ marks a conversion by molar mass, not a printed value. Like-named read-outs stand apart in the source and are kept apart here.

Key:
[1] = test system: Vibrio fischeri; test: microbe, parasite or virus in culture; assay type: cell-based; details: Aliivibrio fischeri; for EC50: 0.5 h, read-out: EC50 V. fischeri (with confidence interval 2.5–97.5%)
Procedure: (§1) Stock solutions and dilutions were prepared in 2% NaCl in 0.02 M phosphate buffer, pH 7. The freeze-dried bacteria were rehydrated prior to testing in a reactivation solution. Culture suspensions and diluted samples were pre-incubated at 15 °C for 15 min. After the initial luminescence was measured, 0.5 mL of the culture suspension was mixed with the same volume of a diluted sample. The final bioluminescence was measured after 30 min. Incubation was kept at 15 °C (LUMIStox 300 meter, Dr. Lange GmbH, Berlin, Germany). The relative toxicity of the samples was expressed as a percentage of luminescence inhibition compared to the controls.
as §1, with “m,” for “meter,”

[2] = test system: Daphnia magna; test: D. magna acute immobilization test; assay type: in vivo; details: Daphnia magna; for mortality at 70 µg/mL: read-out: Immobilization; for EC50: immobilization, 48 h, read-out: EC50 D. magna (with confidence interval 2.5–97.5%)
Procedure: (§2) All tests were carried out in accordance with the OECD or ISO guidelines. In general the experimental part was divided into three main steps: (i) determination of the toxicity of the native forms of pharmaceuticals (their racemic mixtures), (ii) toxicity evaluation of the selected TPs of these pharmaceuticals, and (iii) preliminary toxicity assessment of the enantiomers of selected pharmaceuticals. For each assay, range-finding tests were conducted, in order to determine the range of concentrations for the definitive tests. The main tests were repeated three times in at least two parallel replicates, with a minimum of five concentrations for native forms of the selected pharmaceuticals (including their enantiomers). The exact number of replicates and concentrations tested was included in the description of each test. […] However, TPs were tested in a different manner; first, the tests were carried out at the limit concentration of 100 mg L^−1. […] Such approach was applied in order to observe the relative toxicity of the selected TP and its native form.
(§3) Dose-response curves were fitted using a linear logistic or logistic model (the model giving the best fit was chosen) (https://cran.r-project.org/web/packages/drfit/drfit.pdf). The mathematic formulas applied for this purpose are presented and described in the Supplementary Material. The EC50 values were given since log EC50 is a model parameter in the logistic as well as in linear logistic model.
Five pre-fed test organisms were incubated with the studied compounds diluted in 10 mL of test media in glass test vessels at 20 °C (± 1 °C) in darkness for 48 h. Each test consisted of a control and five different concentrations of the studied compound in four parallel replicates. In order to achieve a full dose-response relationship, the concentration series covered the range of 0–100% immobilization. The number of immobilized or dead organisms was checked after 24 and 48 h. The negative effect of exposure to the tested compounds was expressed by the number of immobilized organisms compared to the controls.

[3] = test system: Lemna minor; test: L. minor growth inhibition test; details: Lemna minor; for EC50: 168 h, read-out: EC50 L. minor (with confidence interval 2.5–97.5%), growth rate inhibition by frond area, 7 days
Procedure: as §2, §3
One week before the assay, the inoculum cultures were prepared; eight healthy plants were placed into a new portion of the medium. Two days before the test, the plants were transferred to a fresh medium, in order to supplement nutrients and to eliminate plant metabolites. The experiments were performed in six-well plates under the conditions described above. The pH value of the Steinberg medium and all solutions was 5.5 (± 0.5). Every test included six different concentrations of compound and six controls in three replicates. The test started with one plant consisting of three fronds and the measured endpoint was the inhibition of growth rate determined by comparing the frond area (mm^2) for the treated plants and untreated controls.

[4] = test system: Raphidocelis subcapitata; test: R. subcapitata reproduction (growth) inhibition test; assay type: cell-based; details: Raphidocelis subcapitata, 72 h, growth inhibition by cell counts, 72 h; read-out: EC50 R. subcapitata (with confidence interval 2.5–97.5%)
Procedure: as §2, §3
Test organisms were provided from Algal Culture Collection (Universität Göttingen, Germany). […] The light-dark cycle was different from the OECD guidelines, and it was introduced to imitate natural growth conditions. In order to ensure that the algae are in the exponential growth phase when used to inoculate the test solutions, the stock culture was diluted three times a week. The test was carried out in 25 mL suspension cell culture flasks (Nunc) (working volume 10 mL). All operations were performed under sterile conditions. The initial cell concentration was 5 × 10^4 cells mL^−1. Eight different concentrations of every compound in three replicates and a minimum of six controls were used in each test. […] The test flasks were incubated on a shaker with a speed of approx. 75 rpm at the temperature and light conditions described above. Growth inhibition was calculated using the cell counts of the treated samples in relation to the untreated controls after 72 h of exposure. The cells were counted with the use of CASY TT Cell counter & analyzer.

[5] = test system: Arthrobacter globiformis; test: A. globiformis dehydrogenase inhibition test (version without soil); details: for EC50: read-out: EC50 A. globiformis
Procedure: as §2
The test strain was obtained from the German Collection of Microorganisms (DSMZ). A version of the test without soil was performed. Bacteria was grown in a sterile medium containing 10 g L^−1 peptone from casein, 5 g L^−1 yeast extract, 5 g L^−1 glucose, and 5 g L^−1 NaCl. For the test, the medium was diluted in a ratio of 1:3 in water. The inoculum was the bacteria in a log-growth phase. Cell density was adjusted to 1 × 10^8 cells mL^−1, which corresponds to an optical density (OD600nm) of 0.4. The test was performed in 24-well microplates. Each well contained 1 mL of solution of the tested compound in water and 1 mL of bacterial inoculum. Next, the plates were incubated for 2 h at 30 °C on a horizontal shaker with a speed of 100 rpm. To each well, a portion of 0.6 mL of the redox active dye resazurine (45 mg L^−1) dissolved in buffer was added. The microplates were further incubated for 1 h (30 °C, 100 rpm). To stop the reduction process, the plates were centrifuged at 3600g for 10 min. Aliquots (300 μl) of supernatant from each well were immediately transferred to the wells of a 96-well microplate in triplicates. Finally, the dehydrogenase activity was determined by measuring the formation of resorufin from resazurine using a fluorimeter ([…]). Dehydrogenase inhibition was calculated using Eq. 1.
where FBTS is the measured fluorescence of the blank (medium) with the tested substance, FTS is the measured fluorescence of the sample, FBNC is the measured fluorescence of the blank, and FNC is the measured fluorescence of the negative control (with bacteria).

[6] = test system: aquatic organisms
[7] = test system: duckweed; details: ref Cleuvers 2003; cited from earlier work
[8] = test system: algae; details: cited from earlier work
[9] = test system: V. fischeri; details: cited from earlier work
[10] = test system: L. minor; details: cited from earlier work
[11] = ref US Food and Drug Administration 1996

COc1ccc2cc([C@H](C)C(=O)O)ccc2c1 [NAP, Naproxen]
EC50 ([1]; luminescence inhibition, 30 min, 15 °C): 25.2 µg/mL (≈ 109 µM) | inhibition at 25 µg/mL ([1]; concentration 25 mg L^−1, read-out: Luminescence inhibition): 51% | mortality at 70 µg/mL ([2]; concentration 70 mg L^−1): 32% | EC50 [2]: 74.4 µg/mL (≈ 323 µM) | EC50 [3]: 20.7 µg/mL (≈ 89.9 µM) | EC50 [4]: 27.1 µg/mL (≈ 118 µM) | EC50 [5]: > 100 µg/mL | classification on the basis of EC50 values (EC 93/67/EEC) ([6]; for the organisms named in the sentence): harmful | EC50 duckweed [7]: 24 µg/mL (≈ 104 µM) | EC50, 72h algae ([8]; 72 h, ref Minguez et al. 2016): 44.40 µg/mL (≈ 193 µM) | EC50, 96h algae ([8]; 96 h, ref Isidori et al. 2005b): 31.82 µg/mL (≈ 138 µM)

COc1cccc(C2(O)CCCCC2CN(C)C)c1 (stereo not shown) [TRA, Tramadol]
mortality at 70 µg/mL [2]: 44% | toxic effect towards V. fischeri ([9]; at the concentration of 100 mg L^−1, ref Romanucci et al. (2019)): did not observed any toxic effect | toxicity to V. fischeri [9, 11]: not toxic | toxicity to L. minor [10, 11]: not toxic

O=C(O)Cc1ccccc1Nc1c(Cl)cccc1Cl [DIC, Diclofenac]
EC50 [1]: 11.6 µg/mL (≈ 39.2 µM) | inhibition at 10 µg/mL ([1]; read-out: Luminescence inhibition): 45% | mortality at 60 µg/mL ([2]; concentration 60 mg L^−1): 50% | EC50 [2]: 59.1 µg/mL (≈ 200 µM) | EC50 [3]: 16.5 µg/mL (≈ 55.8 µM) | inhibition at 15 µg/mL ([3]; read-out: Growth inhibition of L. minor): 33% | EC50 [5]: > 100 µg/mL | inhibition at 100 µg/mL ([5]; read-out: inhibition of bacterial growth (A. globiformis)): 30% | classification on the basis of EC50 values (EC 93/67/EEC) [6]: harmful | EC50 L. minor ([10]; ref Quinn et al. (2011)): 47.6 µg/mL (≈ 161 µM)
